From patent publication US12458634B2, “Stabilized liquid formations containing picosulfate” (Ferring B.V., priority 2016, dated 2025)

Test: Chemical stability of sodium picosulfate liquid formulations on storage (UPLC/HPLC assay of sodium picosulfate and degradation products)
Settings: for Effect of the anti-oxidant on rate of formation of Picosulfate Benzyl Alcohol: formulations containing sodium picosulfate, magnesium citrate and malic acid; for Effect of the anti-oxidant on initial rate of formation of Picosulfate Benzyl Alcohol, Compound RRT 1.35 and Compound RRT 1.94: formulations containing sodium carboxymethylcellulose and malic acid (Table 14)
[1] = water-insoluble antioxidants (Table 21)
[2] = water-soluble antioxidants (Table 17)

SMILES	Effect of the anti-oxidant on rate of formation of Picosulfate Benzyl Alcohol [1]	Effect of the anti-oxidant on rate of formation of Picosulfate Benzyl Alcohol [2]	Effect of the anti-oxidant on initial rate of formation of Picosulfate Benzyl Alcohol, Compound RRT 1.35 and Compound RRT 1.94
Cc1c(C)c2c(c(C)c1O)CC[C@@](C)(CCC[C@H](C)CCC[C@H](C)CCCC(C)C)O2 [α-tocopherol]	effective to reduce the rate of formation		
Cc1cc(C(C)(C)C)c(O)c(C(C)(C)C)c1 [BHT, butylated hydroxytoluene]	effective to reduce the rate of formation		
CCCOC(=O)c1cc(O)c(O)c(O)c1 [propyl gallate]	effective to reduce the rate of formation		
COc1ccc(O)c(C(C)(C)C)c1 [BHA, butylated hydroxyanisole]	effective to reduce the rate of formation		
N[C@@H](Cc1c[nH]cn1)C(=O)O [histidine]		effective to reduce the rate of formation	
O=S([O-])S(=O)(=O)[O-].[Na+].[Na+] [sodium metabisulfite]		effective to reduce the rate of formation	effective to reduce the initial rate of formation
O=S([O-])S(=O)(=O)[O-].[K+].[K+] [potassium metabisulfite]			effective to reduce the initial rate of formation
